Data on one compound can be found in patent US5663197A, “2-(1-hydroxyethyl)-5-hydroxynaphtho[2,3-b]furan-4,9-dione and antitumor agents comprising this compound” (priority 1992, dated 1997).

Common to all, as to format: cell-based
Data set [1] has as its system Human lung adenocarcinoma A-549 cells. Put plainly: In vitro antitumor test (trypan blue exclusion viable cell count), A-549. Conditions: A549, 72 h, three days exposure, read-out: LD50 (IC50), 50% growth-inhibitory dose. As to the method: (§1) An appropriate amount of NFD was dissolved in DMSO to give a 1.0 mg/ml stock solution, which was diluted as necessary before use.
(§2) The following cells in the late logarithmic phase were harvested after treatment with trypsin (containing 0.25% trypsin and 0.02% EDTA; 37° C., 3 min) and used in the test: human lung adenocarcinoma cell lines A-549, VMRC-LCD and SK-LU-1, human lung squamous cell carcinoma Calu-1 cells, human colon adenocarcinoma WiDr cells, human prostate cancer LNCaP cells, human vaginal squamous cell carcinoma A-431 cells, human cervical carcinoma HeLa cells, human cholangiocarcinoma HuCC-T1 cells, mouse skin cancer melanoma B16 (M4) cells, human pancreatic carcinoma ASPC-1 cells, human neuroblastoma IMR-132 cells, human lung small cell carcinoma SCCH-194 cells, human uninary bladder carcinoma T24 cells, human renal cell carcinoma […] cells, human gastric cancer NUGC-2 cells, human thyroid carcinoma 8305C cells, human hepatoma HUH-7 cells, human ovarian carcinoma TYK-nu cells and human chorio carcinoma BeWo cells. […] These cells were plated onto a 96-well microplate at a density of 5-10×10^3 cells/cm^2 using DMEM or RPMI-1640 medium containing 10% fetal bovine serum and cultured for 24 hours in a conventional manner, after which a pre-determined amount of NFD dissolved in DMSO was added to each well. […]

The test system of data set [2] is Human neuroblastoma IMR-132 cells. Briefly: In vitro antitumor test (trypan blue exclusion viable cell count), IMR-132. As to the method:
as §1, §2

The subject of data set [3] is Normal human N6KA fibroblasts. Briefly: In vitro growth test on normal cells, N6KA fibroblasts. As to the method:
as §1, §2

Data set [4] concerns Human hepatoma HuH-7 cells. Put plainly: In vitro antitumor test (trypan blue exclusion viable cell count), HuH-7. As to the method:
as §1, §2

Data set [5] deals with Normal human tracheal epithelial cells. Put plainly: In vitro growth test on normal cells, tracheal epithelial cells. As to the method: as §1, §2
The test system of data set [6] is Human ovarian carcinoma TYK-nu cells. Briefly: In vitro antitumor test (trypan blue exclusion viable cell count), TYK-nu. As to the method:
as §1
as §2, with “cells. Suspension cultures of human breast cancer MRK-nu-1 cells, human malignant B-cell lymphoma cells and human chronic myelogenous leukemia K562 cells were used to harvest the cells to be used in the test.” for “cells.”, “well. Cultivation was continued, and the number of viable cells was counted after 24, 48 and 72 hours.” for “well.”
Growth inhibitory action and lethal activity of NFD on various types of malignant tumor cells and normal human cells listed above were evaluated by counting the number of viable cells in each well of the 96-well microplate. […]

The subject of data set [7] is Human pancreatic carcinoma ASPC-1 cells. Put plainly: In vitro antitumor test (trypan blue exclusion viable cell count), ASPC-1. As to the method: as §1, §2
The test system of data set [8] is Human malignant B-cell lymphoma cells. Put plainly: In vitro antitumor test (trypan blue exclusion viable cell count), malignant B-cell lymphoma. To be noted: 72 h, three days exposure, read-out: LD50 (IC50), 50% growth-inhibitory dose.
The test system of data set [9] is Normal human peripheral blood lymphocytes. Briefly: In vitro growth test on normal cells, peripheral blood lymphocytes. As to the method:
as §1, §2

Values after ≈ are worked out from the molar mass of the structure shown.

A word on the IC50: it is the concentration at which inhibition is half-maximal.

With `CC(O)c1cc2c(o1)C(=O)c1cccc(O)c1C2=O` (centres unmarked) [NFD, 2-(1-hydroxyethyl)-5-hydroxynaphtho[2,3-b]furan-4,9-dione], the half-maximal inhibitory concentration (IC50) is 0.0095 µg/mL (≈ 0.0368 µM) in [1]; 0.01 µg/mL (≈ 0.0387 µM) in data set [2] (72 h, IMR-132, three days exposure, read-out: LD50 (IC50), 50% growth-inhibitory dose); 0.084 µg/mL (≈ 0.325 µM) in data set [3] (Homo sapiens, Fibroblast, 72 h, N6KA normal fibroblasts, three days exposure, read-out: LD50 (IC50), 50% growth-inhibitory dose); 0.0055 µg/mL (≈ 0.0213 µM) in data set [4] (72 h, HuH-7, three days exposure, read-out: LD50 (IC50), 50% growth-inhibitory dose); more than 0.055 µg/mL in [5] (Homo sapiens, Epithelial cell, 72 h, normal tracheal epithelial cells, three days exposure, read-out: LD50 (IC50), 50% growth-inhibitory dose); 0.017 µg/mL (≈ 0.0658 µM) in [6] (Homo sapiens, 72 h, TYK-nu, three days exposure, read-out: LD50 (IC50), 50% growth-inhibitory dose). The half-inhibitory concentration (IC50) in [7] (ASPC1, 72 h, ASPC-1, three days exposure, read-out: LD50 (IC50), 50% growth-inhibitory dose) is 0.017 µg/mL (≈ 0.0658 µM); in data set [8], 0.0056 µg/mL (≈ 0.0217 µM); in [9] (Homo sapiens, Lymphocyte, 72 h, normal peripheral blood lymphocytes, three days exposure, read-out: LD50 (IC50), 50% growth-inhibitory dose), 0.084 µg/mL (≈ 0.325 µM). Also, the IC (almost complete) in [2] (FIG. 14, read-out: concentration inhibiting growth almost completely) was found to be 0.0447 µg/mL; in [4] (Huh-7, FIG. 21, read-out: concentration inhibiting growth almost completely) it was 0.02 µg/mL; in data set [6] (Homo sapiens, FIG. 22, read-out: concentration inhibiting growth almost completely), 0.02 µg/mL; in data set [7] (ASPC1, FIG. 13, read-out: concentration inhibiting growth almost completely), 0.0335 µg/mL. Besides, the “adverse effects on growth of normal cells” value is recorded as “no adverse effects” in [3] (FIG. 24, at concentrations which cause necrosis in tumor cells); “no adverse effects” in data set [5] (FIG. 25, at concentrations which cause necrosis in tumor cells); “no adverse effects” in data set [9] (FIG. 26, at concentrations which cause necrosis in tumor cells). Also, the “concentration causing necrosis in almost all tumor cells” value in data set [6] (FIG. 22) was not below 40 ng/mL.
